Assay results published in publication PMC4209782 (Biochemical Journal, 2014).

Tests used:
[1] = tested on: Akt (Thr308, Ser473) and Akt substrate PRAS40 (Thr246) phosphorylation; assay: Akt and PRAS40 phosphorylation, immunoblot of treated U2OS cells; type: cell-based; conditions: 1 h
Experimental: (§1) U20S cell line was kindly provided by John Rouse (MRC Protein Phosphorylation and Ubiquitylation Unit, University of Dundee, Dundee, U.K.). Cells were cultured in DMEM (Dulbecco's modified Eagle's medium) supplemented with 10% (v/v) FBS, 2 mM L-glutamine, 100 U/ml penicillin and 0.1 mg/ml streptomycin. cDNA for mouse Hrs (residues 147–223 ×2 joined by a linker) were cloned into a pBABE.puro vector. […] . The virus was harvested 48 h after transfection and applied to U20S cells in the presence of 10 μg/ml polybrene. Cells were selected with 10 μg/ml puromycin before single cell colony selection to identify low expression GFP–FYVEHrs clones. U2OS Flp/In cell line was kindly provided by John Rouse. Cells were cultured in McCoy medium supplemented with 10% (v/v) FBS, 2 mM L-glutamine, 100 U/ml penicillin and 0.1 mg/ml streptomycin. Stable cell lines expressing doxycycline-inducible proteins were generated using the Flp-In™ T-REx™ system (Invitrogen). Stable transfected clones were selected using 0.01 mM hygromycin in cell medium. Protein expression was induced by adding 0.01 mg/ml doxycycline in the medium for 24 h prior to cell lysis. Inhibitor treatment was carried out as described in the Figure legends. The cells were lysed in buffer containing 50 mM Tris/HCl (pH 7.5), 150 mM NaCl, 1 mM EDTA, 1 mM EGTA, 1 mM sodium orthovanadate, 10 mM sodium glycerophosphate, 50 mM sodium fluoride, 10 mM sodium pyrophosphate, 0.27 M sucrose, 0.1% 2-mercaptoethanol, 1 mM benzamidine and 0.1 mM PMSF. Lysates were clarified by centrifugation at 16000 g for 10 min at 4°C. Protein concentration was calculated using Bradford assay (Thermo Scientific). Immunoblotting and immunoprecipitation were performed using standard procedures. The signal was developed using the ECL Western Blotting Detection kit (GE Healthcare) on Hyperfilm ECL film (GE Healthcare).
The following antibodies were raised in sheep, by the DSTT (Division of Signal Transduction Therapy) at the University of Dundee, and affinity-purified against the indicated antigens: anti-Akt1 (S695B, third bleed; raised against residues 466–480 of human Akt1: […]), anti-PRAS40 (proline-rich Akt substrate 40 kDa) (S115B, first bleed; raised against residues 238–256 of human PRAS40: […]), anti-(phospho-PRAS40 Thr^246) (S114B, second bleed; raised against residues 240–251 of human PRAS40: CRPRLNTpSDFQK), anti-NDRG1 (N-Myc downstream-regulated gene-1) (S276B third bleed; raised against full-length human NDRG1) and anti-SGK3 [S037D second bleed; raised against human SGK3 PX domain comprising residues 1–130 of SGK3]. […] Anti-(phospho-SGK hydrophobic motif [Ser^486 in SGK3]) antibody (sc16745) was from Santa Cruz Biotechnology and total SGK1/2 antibody was from Sigma (5188) as was the mouse anti-FLAG antibody. Secondary antibodies coupled to HRP (horseradish peroxidase) were obtained from Thermo Scientific.
. […] (B and C) As in (A) except cells were treated with the indicated doses of the BKM120 class I PI3K inhibitor.

Vps34 = conditions: cited from earlier work
[2] = tested on: 4EBP1 phosphorylation (Thr37, Thr46 and Ser65); assay: 4E-BP1 phosphorylation (mTORC1 sites), immunoblot of treated U2OS cells; type: cell-based; conditions: AZD8055 0.1 μM
Experimental: as §1, with “Healthcare). […]” for “Healthcare).”

SGK3 = SGK3 kinase activity after immunoprecipitation from inhibitor-treated U2OS cells (Crosstide assay); type: cell-based
[3] = tested on: SGK3 phosphorylation (Thr320, Ser486); assay: SGK3 T-loop and hydrophobic motif phosphorylation, immunoblot of treated U2OS cells; type: cell-based; conditions: for SGK3 T-loop and hydrophobic motif phosphorylation: 1 h, U2OS, immunoblot
Experimental: as §1, with “Healthcare). […]” for “Healthcare).”

[4] = tested on: PtdIns(3,4,5)P3/PtdIns(3,4)P2 (GFP–PHAkt1 probe) in U2OS cells; assay: IGF1-induced plasma membrane recruitment of GFP–PHAkt1 in U2OS cells; conditions: 1 μM VPS34-IN1 or 0.5 μM GDC-0941 for 1 h, IGF 100 ng/ml 15 min
Experimental: (§2) Cells were cultured on glass coverslips and processed for immunocytochemistry using standard protocols. […] For experiments quantifying co-localization of SGK3–GFP with EEA1 (early endosome antigen 1) and localization GFP–FYVEHrs in response to inhibitor treatment, cells were permeabilized via one freeze–thaw cycle in liquid nitrogen and subsequently fixed. The following primary antibodies were used: rabbit anti-EEA1 (1:500 dilution; Life Technologies) and mouse anti-GFP (1:1000 dilution; Life Technologies) antibodies. […] Imaging was conducted using a Nikon Eclipse Ti-S microscope (×40 objective) or a Zeiss LSM710 laser scanning confocal microscope [×63 Plan-Apochromat oil immersion objective; 1.40 NA (numerical aperture)] as described in the Figure legends. Time-lapse microscopy was carried out on the same microscope using a heated incubator, heated stage plate and CO2 controller (Pecon) to maintain the cells.
(§3) Time-lapse microscopy was performed on Zeiss 710 microscope using ×63 objective. […] The cells were fixed with 4% paraformaldehyde and images were taken using Zeiss 710 microscope at ×63 objective.

[5] = tested on: NDRG1 phosphorylation at Thr346; assay: NDRG1 Thr346 phosphorylation, immunoblot of treated U2OS cells; type: cell-based; conditions: 1 h
Experimental: as §1, with “The cells were lysed in buffer containing 50 mM Tris/HCl (pH 7.5), 150 mM NaCl, 1 mM EDTA, 1 mM EGTA, 1 mM sodium orthovanadate, 10 mM sodium glycerophosphate, 50 mM sodium fluoride, 10 mM sodium pyrophosphate, 0.27 M sucrose, 0.1% 2-mercaptoethanol, 1 mM benzamidine and 0.1 mM PMSF. Lysates were clarified by centrifugation at 16000 g for 10 min at 4°C.” left out, “Immunoblotting and immunoprecipitation were performed using standard procedures. The signal was developed using the ECL Western Blotting Detection kit (GE Healthcare) on Hyperfilm ECL film (GE Healthcare).” left out

[6] = tested on: SGK3 localization on endosomes in U2OS cells; assay: SGK3–GFP endosomal localization, time-lapse microscopy in U2OS cells
Experimental: as §2
Images were acquired every 0.5 min up to 60 min. […] Post-acquisition, image analysis was conducted with Volocity 6.3 (PerkinElmer).
Images were taken using a Nicon Eclipse Ti-S microscope with ×40 objective (upper panel). […] Pictures were taken with Zeiss 710 microscope using ×100 objective. Mander's correlation coefficient in 112 cells was calculated using the Volocity 6.3 program. […] Time-lapse microscopy was performed on Zeiss 710 microscope using ×63 objective. Representative images are shown and similar results were obtained in two experiments.

[7] = tested on: endosomal PtdIns(3)P (GFP–2×FYVEHrs probe) in U2OS cells; assay: GFP–2×FYVEHrs probe localization, live imaging (time-lapse) in U2OS cells
Experimental: as §2
Images were acquired every 0.5 min up to 60 min. Inhibitors were added after acquiring two images, except for VPS34-IN1 that was added after the first image taken. Post-acquisition, image analysis was conducted with Volocity 6.3 (PerkinElmer).
as §3

SGK2 = SGK2 kinase activity after immunoprecipitation from inhibitor-treated U2OS cells; conditions: 1 h, U2OS expressing SGK2
Experimental: In vitro kinase activity of SGK3 and SGK2 was assayed by measuring [γ-^32P]ATP incorporation into Crosstide substrate peptide [[sequence]]. SGK3 with a C-terminal FLAG-tag was immunoprecipitated from doxycycline-induced U2OS Flp/In cell lines. Immunoprecipitates were washed in sequence with lysis buffer containing high salt concentration (500 mM NaCl), lysis buffer and buffer A (50 mM Tris/HCl, pH 7.5, and 0.1 mM EGTA). Reactions were carried in 40 μl of total volume containing 0.1 mM [γ-^32P]ATP (400–1000 c.p.m./pmol), 10 mM magnesium acetate and 30 μM Crosstide peptide. Reactions were terminated by adding 10 μl of 0.1 mM EDTA and spotting 40 μl of the reaction mixture on P81 paper which were immediately immersed into 50 mM orthophosphoric acid. Papers were washed several times in 50 mM orthophosphoric acid, rinsed in acetone and air dried. Radioactivity was quantified by Cerenkov counting. One unit of enzyme activity was defined as the amount of enzyme that catalyses incorporation of 1 nmol of [γ-^32P]ATP into the substrate over 1 min.
The cells were lysed and SGK3 immunoprecipitated with anti-FLAG antibody. […]

[8] = tested on: panel of 19 lipid kinases (includes class I PI3Ks); assay: Dundee lipid kinase profiling panel; type: biochemical; conditions: 1 μM
[9] = tested on: endosomal PtdIns(3)P (GFP–2×FYVEHrs probe) in U2OS cells; assay: GFP–2×FYVEHrs probe localization on endosomes, fixed U2OS cells; type: cell-based; conditions: for loss of endosomal localization of GFP–2×FYVEHrs: 1 h
Experimental: U20S cell line was kindly provided by John Rouse (MRC Protein Phosphorylation and Ubiquitylation Unit, University of Dundee, Dundee, U.K.). […] The virus was harvested 48 h after transfection and applied to U20S cells in the presence of 10 μg/ml polybrene. Cells were selected with 10 μg/ml puromycin before single cell colony selection to identify low expression GFP–FYVEHrs clones. U2OS Flp/In cell line was kindly provided by John Rouse. Cells were cultured in McCoy medium supplemented with 10% (v/v) FBS, 2 mM L-glutamine, 100 U/ml penicillin and 0.1 mg/ml streptomycin. Stable cell lines expressing doxycycline-inducible proteins were generated using the Flp-In™ T-REx™ system (Invitrogen). Stable transfected clones were selected using 0.01 mM hygromycin in cell medium. Protein expression was induced by adding 0.01 mg/ml doxycycline in the medium for 24 h prior to cell lysis. Inhibitor treatment was carried out as described in the Figure legends. The cells were lysed in buffer containing 50 mM Tris/HCl (pH 7.5), 150 mM NaCl, 1 mM EDTA, 1 mM EGTA, 1 mM sodium orthovanadate, 10 mM sodium glycerophosphate, 50 mM sodium fluoride, 10 mM sodium pyrophosphate, 0.27 M sucrose, 0.1% 2-mercaptoethanol, 1 mM benzamidine and 0.1 mM PMSF. Lysates were clarified by centrifugation at 16000 g for 10 min at 4°C. Protein concentration was calculated using Bradford assay (Thermo Scientific). Immunoblotting and immunoprecipitation were performed using standard procedures. The signal was developed using the ECL Western Blotting Detection kit (GE Healthcare) on Hyperfilm ECL film (GE Healthcare).
Cells were cultured on glass coverslips and processed for immunocytochemistry using standard protocols. […] For experiments quantifying co-localization of SGK3–GFP with EEA1 (early endosome antigen 1) and localization GFP–FYVEHrs in response to inhibitor treatment, cells were permeabilized via one freeze–thaw cycle in liquid nitrogen and subsequently fixed. […]
The average cell fluorescence was calculated by dividing total fluorescence of each field by the number of the cells in the field. […]

[10] = tested on: ProQinase panel of 300 protein kinases; assay: ProQinase protein kinase profiling panel; type: biochemical; conditions: 1 μM, 300 kinases
Source text: Supplementary Figure Legends
technology. The assay conditions are described at
activity in DMSO control.

[11] = tested on: Dundee panel of 140 protein kinases; assay: Dundee protein kinase profiling panel; conditions: 1 μM, 140 kinases
Experimental: (C) Protein kinase profiling of the VPS34-IN1 at a single concentration of 1 μM carried out against the Dundee panel of 140 protein kinases at the International Centre for Protein Kinase Profiling. […] Abbreviations and assay conditions used for each kinase are defined at http://www.kinase-screen.mrc.ac.uk.

Nc1cc(C(F)(F)F)c(-c2cc(N3CCOCC3)nc(N3CCOCC3)n2)cn1 [BKM120]
Akt phosphorylation at Ser473 and Thr308 [1]: near basal levels | phosphorylation of Akt substrate PRAS40 (Thr246) [1]: near basal levels | inhibition of Vps34 (Vps34): do not inhibit | phosphorylation of 4EBP1 at sites phosphorylated by mTORC1 [2]: lack of effect | inhibition at 0.5 µM (SGK3; Homo sapiens, U2OS, 1 h, read-out: inhibition of SGK3 activity by class I PI3K inhibitor): ~40%

CNc1nc(-c2ccc3c(N)n[nH]c3c2)cc(N2C[C@@H](C(=O)NC3CCCCC3)CC[C@H]2C)n1 [GSK2334470, reference compound]
SGK3 T-loop and hydrophobic motif phosphorylation [3]: near basal levels | SGK3 activity after PDK1 inhibitor (SGK3; 1 μM, 1 h, U2OS): near basal levels

CS(=O)(=O)N1CCN(Cc2cc3nc(-c4cccc5[nH]ncc45)nc(N4CCOCC4)c3s2)CC1 [GDC-0941, 2-(1H-indazol-4-yl)-6-(4-methanesulfonyl-piperazin-1-ylmethyl)-4-morpholin-4-yl-t hieno[3,2-d]pyrimidine, reference compound]
Akt phosphorylation at Ser473 and Thr308 [1]: near basal levels | phosphorylation of Akt substrate PRAS40 (Thr246) [1]: near basal levels | effect on IGF1-induced plasma membrane recruitment of GFP–PHAkt1 [4]: blocked | NDRG1 phosphorylation at Thr346 [5]: significantly suppressed | inhibition of Vps34 (Vps34): do not inhibit | phosphorylation of 4EBP1 at sites phosphorylated by mTORC1 [2]: lack of effect | effect on SGK3 localization on endosomes ([6]; 0.5 μM GDC-0941 alone or with 1 μM VPS34-IN1, time-lapse): did not change significantly | effect on endosomal localization of GFP–2×FYVEHrs ([7]; 0.5 μM GDC-0941 alone or with 1 μM VPS34-IN1, up to 60 min, live imaging): had no effect | effect on SGK3 activity and phosphorylation at 1 min (SGK3; 0.5 μM GDC-0941, 1 min time point): little effect | time to near maximal inhibition of SGK3 activity (SGK3; 0.5 μM GDC-0941, time course): 2 min

COc1ccc(-c2ccc3c(N4CCOC[C@@H]4C)nc(N4CCOC[C@@H]4C)nc3n2)cc1CO [AZD8055]
phosphorylation of 4EBP1 at sites phosphorylated by mTORC1 [2]: marked dephosphorylation

CC(C)(O)CNc1ncc(-c2ccnc(Nc3ccnc(Cl)c3)n2)c(CC2CC2)n1 [VPS34-IN1, 1-[{2-[(2-chloropyridin-4yl)amino]-4′-(cyclopropylmethyl)-[4,5′-bipyrimidin]-2′-yl}amino]-2-methyl-propan-2-ol]
Akt phosphorylation at Ser473 and Thr308 [1]: had no effect | phosphorylation of Akt substrate PRAS40 (Thr246) [1]: had no effect | effect on IGF1-induced plasma membrane recruitment of GFP–PHAkt1 [4]: had no impact | inhibition of SGK2 activity (SGK2): did not inhibit | NDRG1 phosphorylation at Thr346 [5]: only affected moderately | inhibition of lipid kinases, Dundee panel [8]: did not significantly inhibit | effect on GFP–2×FYVEHrs localization ([9]; 0.01 μM): weak effect | loss of endosomal localization of GFP–2×FYVEHrs ([9]; 0.1 μM): ~ 50% | loss of endosomal localization of GFP–2×FYVEHrs ([9]; 1.0 μM): ~ 80% | inhibition of protein kinases, ProQinase panel [10]: did not significantly inhibit | SGK3 T-loop and hydrophobic motif phosphorylation [3]: commensurate decrease | loss of SGK3 phosphorylation ([3]; within 1 min): 50–60% | time to dispersal of SGK3 from the endosomes ([6]; 1 μM, time-lapse, U2OS): ≤ 1 min | time until dispersal of endosome-localized GFP–SGK3 is essentially complete ([6]; live cell imaging, U2OS): 60 to 120 s | time to near maximal dispersal of endosomal GFP–2×FYVEHrs ([7]; 1 μM, live imaging, U2OS): ≤ 2 min | time to significant dispersal of endosomal GFP–2×FYVEHrs ([7]; 1 μM, live imaging, U2OS): ≤ 1 min | time until dispersal of endosome-localized GFP–2×FYVEHrs is essentially complete ([7]; live cell imaging, U2OS): 60 to 120 s | inhibition of protein kinases, Dundee panel [11]: did not significantly inhibit | reduction in SGK3 activity (SGK3; 0.1 μM VPS34-IN1, 1 h, U2OS): ~ 40% | reduction in SGK3 activity (SGK3; 1 μM VPS34-IN1, 1 h, U2OS): ~ 60% | time to 50% reduction of SGK3 activity (SGK3; 1 μM VPS34-IN1, time course): ≤ 15 s | time to maximal suppression of SGK3 activity (SGK3; 1 μM VPS34-IN1, time course): ≤ 1 min | decrease in SGK3 activity on VPS34-IN1 treatment (SGK3; U2OS, concentration not given): 50–60% | time to nearly maximal reduction in SGK3 activity and phosphorylation (SGK3; VPS34-IN1, as stated in Discussion): ≤ 30 s
